# Reference: patent US20260265238A1, “COMPOUNDS AND PHARMACEUTICAL COMPOSITIONS THAT DEGRADE SWI/SNF-RELATED MATRIX-ASSOCIATED ACTIN-DEPENDENT REGULATOR OF CHROMATIN SUBFAMILY A” (Plexium, Inc., priority 2023, published 2026)
# How the values were obtained:
# [1] = biological target: T1, SMARCA2-HiBiT HeLa cells (protein which is expressed from the SMARCA2 gene) (Homo sapiens, UniProt P51531); test: SMARCA2 degradation assay (HiBiT-fusion HeLa cell line, 24 h, luminescence); assay type: cell-based
# T1 construct: protein which is expressed from the SMARCA2 and SMARCA4 genes; host or cells: HeLa (SMARCA2-HiBiT engineered line)
# Description: (§1) SMARCA2 and SMARCA4 Degradation Assay
# (§2) Degradation of protein which is expressed from the SMARCA2 and SMARCA4 genes was monitored using engineered HiBiT-fusion HeLa cell lines from Promega. In brief, 384-well white opaque plates (Greiner) were seeded with SMARCA2-HiBiT or SMARCA4-HiBiT HeLa cells at 8,000 cells/well and incubated overnight at 37° C. to allow cell attachment. After overnight incubation, test compounds were added in a 10-point dilution series (typically 10 μM to 300 pM) using a TECAN D300e Digital Dispenser, and plates were subsequently incubated for 24 hours at 37° C. 24-hours post-treatment, protein levels were quantified with the addition of HiBiT lytic buffer, LgBiT protein, and HiBiT substrate, according to manufacturer's specifications. Plates were incubated on an orbital plate shaker for 10 minutes at room temperature. Resulting luminescent values were read out using a ClarioStar plate reader and used to construct dose-response curves and calculation of degradation DC50s (GraphPad Prism).
# (§3) Activity of the tested compounds is provided in Table 4 below as follows: A=DC50<0.050 μM; B=0.05 μM<DC50<0.50 μM; C=<0.5 μM<DC50<5.0 μM; D=DC50>5.0 μM. For SMARCA2 and SMARCA4 degradation activity @1 μM, +++=>70%; ++=30-70%; +=<30%.
# [2] = biological target: T2, SMARCA4-HiBiT HeLa cells (protein which is expressed from the SMARCA4 gene) (Homo sapiens, UniProt P51532); test: SMARCA4 degradation assay (HiBiT-fusion HeLa cell line, 24 h, luminescence); assay type: cell-based
# T2 construct: protein which is expressed from the SMARCA2 and SMARCA4 genes; host or cells: HeLa (SMARCA4-HiBiT engineered line)
# Description: as §1, §2, §3
# T1 sequence (P51531 whole entry, the tested form may be a part): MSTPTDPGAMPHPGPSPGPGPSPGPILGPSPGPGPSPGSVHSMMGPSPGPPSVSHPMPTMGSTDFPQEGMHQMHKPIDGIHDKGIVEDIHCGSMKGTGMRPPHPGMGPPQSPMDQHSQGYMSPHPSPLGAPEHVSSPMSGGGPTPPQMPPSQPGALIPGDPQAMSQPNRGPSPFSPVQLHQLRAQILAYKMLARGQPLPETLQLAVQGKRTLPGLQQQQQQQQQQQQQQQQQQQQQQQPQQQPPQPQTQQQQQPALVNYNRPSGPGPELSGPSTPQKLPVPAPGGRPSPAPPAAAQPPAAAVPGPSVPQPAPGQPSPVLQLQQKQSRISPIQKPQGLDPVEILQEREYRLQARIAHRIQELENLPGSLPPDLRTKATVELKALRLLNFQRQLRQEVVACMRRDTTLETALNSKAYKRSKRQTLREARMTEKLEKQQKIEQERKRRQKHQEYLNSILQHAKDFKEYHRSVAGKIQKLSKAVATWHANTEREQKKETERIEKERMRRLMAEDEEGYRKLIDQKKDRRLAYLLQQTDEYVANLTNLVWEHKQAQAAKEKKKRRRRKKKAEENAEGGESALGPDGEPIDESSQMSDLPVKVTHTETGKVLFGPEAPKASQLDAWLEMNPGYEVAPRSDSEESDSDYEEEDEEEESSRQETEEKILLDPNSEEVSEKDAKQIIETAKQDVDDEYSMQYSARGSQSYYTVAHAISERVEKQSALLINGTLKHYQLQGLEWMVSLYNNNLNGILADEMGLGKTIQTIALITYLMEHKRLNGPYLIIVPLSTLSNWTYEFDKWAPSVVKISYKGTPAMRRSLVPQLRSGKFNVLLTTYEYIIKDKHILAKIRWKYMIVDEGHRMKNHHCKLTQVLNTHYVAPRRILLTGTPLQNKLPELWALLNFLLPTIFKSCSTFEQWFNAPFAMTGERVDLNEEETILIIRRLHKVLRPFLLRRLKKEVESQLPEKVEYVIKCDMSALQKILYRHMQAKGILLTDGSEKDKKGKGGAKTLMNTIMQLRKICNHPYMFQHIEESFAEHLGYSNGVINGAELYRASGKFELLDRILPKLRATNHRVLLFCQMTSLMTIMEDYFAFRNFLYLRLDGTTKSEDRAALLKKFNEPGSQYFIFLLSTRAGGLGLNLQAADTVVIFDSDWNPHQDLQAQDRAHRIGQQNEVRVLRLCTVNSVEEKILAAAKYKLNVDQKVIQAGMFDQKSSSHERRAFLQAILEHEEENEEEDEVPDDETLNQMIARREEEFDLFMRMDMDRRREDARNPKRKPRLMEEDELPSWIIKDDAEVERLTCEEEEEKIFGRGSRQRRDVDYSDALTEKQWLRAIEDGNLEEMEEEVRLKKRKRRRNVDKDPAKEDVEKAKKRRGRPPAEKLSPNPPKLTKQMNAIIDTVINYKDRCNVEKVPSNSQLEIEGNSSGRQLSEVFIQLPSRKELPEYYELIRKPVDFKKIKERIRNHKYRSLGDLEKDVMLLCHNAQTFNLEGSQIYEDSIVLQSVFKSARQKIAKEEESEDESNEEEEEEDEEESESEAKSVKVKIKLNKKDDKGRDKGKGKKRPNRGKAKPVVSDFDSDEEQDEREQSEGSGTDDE
# T2 sequence (P51532 whole entry, the tested form may be a part): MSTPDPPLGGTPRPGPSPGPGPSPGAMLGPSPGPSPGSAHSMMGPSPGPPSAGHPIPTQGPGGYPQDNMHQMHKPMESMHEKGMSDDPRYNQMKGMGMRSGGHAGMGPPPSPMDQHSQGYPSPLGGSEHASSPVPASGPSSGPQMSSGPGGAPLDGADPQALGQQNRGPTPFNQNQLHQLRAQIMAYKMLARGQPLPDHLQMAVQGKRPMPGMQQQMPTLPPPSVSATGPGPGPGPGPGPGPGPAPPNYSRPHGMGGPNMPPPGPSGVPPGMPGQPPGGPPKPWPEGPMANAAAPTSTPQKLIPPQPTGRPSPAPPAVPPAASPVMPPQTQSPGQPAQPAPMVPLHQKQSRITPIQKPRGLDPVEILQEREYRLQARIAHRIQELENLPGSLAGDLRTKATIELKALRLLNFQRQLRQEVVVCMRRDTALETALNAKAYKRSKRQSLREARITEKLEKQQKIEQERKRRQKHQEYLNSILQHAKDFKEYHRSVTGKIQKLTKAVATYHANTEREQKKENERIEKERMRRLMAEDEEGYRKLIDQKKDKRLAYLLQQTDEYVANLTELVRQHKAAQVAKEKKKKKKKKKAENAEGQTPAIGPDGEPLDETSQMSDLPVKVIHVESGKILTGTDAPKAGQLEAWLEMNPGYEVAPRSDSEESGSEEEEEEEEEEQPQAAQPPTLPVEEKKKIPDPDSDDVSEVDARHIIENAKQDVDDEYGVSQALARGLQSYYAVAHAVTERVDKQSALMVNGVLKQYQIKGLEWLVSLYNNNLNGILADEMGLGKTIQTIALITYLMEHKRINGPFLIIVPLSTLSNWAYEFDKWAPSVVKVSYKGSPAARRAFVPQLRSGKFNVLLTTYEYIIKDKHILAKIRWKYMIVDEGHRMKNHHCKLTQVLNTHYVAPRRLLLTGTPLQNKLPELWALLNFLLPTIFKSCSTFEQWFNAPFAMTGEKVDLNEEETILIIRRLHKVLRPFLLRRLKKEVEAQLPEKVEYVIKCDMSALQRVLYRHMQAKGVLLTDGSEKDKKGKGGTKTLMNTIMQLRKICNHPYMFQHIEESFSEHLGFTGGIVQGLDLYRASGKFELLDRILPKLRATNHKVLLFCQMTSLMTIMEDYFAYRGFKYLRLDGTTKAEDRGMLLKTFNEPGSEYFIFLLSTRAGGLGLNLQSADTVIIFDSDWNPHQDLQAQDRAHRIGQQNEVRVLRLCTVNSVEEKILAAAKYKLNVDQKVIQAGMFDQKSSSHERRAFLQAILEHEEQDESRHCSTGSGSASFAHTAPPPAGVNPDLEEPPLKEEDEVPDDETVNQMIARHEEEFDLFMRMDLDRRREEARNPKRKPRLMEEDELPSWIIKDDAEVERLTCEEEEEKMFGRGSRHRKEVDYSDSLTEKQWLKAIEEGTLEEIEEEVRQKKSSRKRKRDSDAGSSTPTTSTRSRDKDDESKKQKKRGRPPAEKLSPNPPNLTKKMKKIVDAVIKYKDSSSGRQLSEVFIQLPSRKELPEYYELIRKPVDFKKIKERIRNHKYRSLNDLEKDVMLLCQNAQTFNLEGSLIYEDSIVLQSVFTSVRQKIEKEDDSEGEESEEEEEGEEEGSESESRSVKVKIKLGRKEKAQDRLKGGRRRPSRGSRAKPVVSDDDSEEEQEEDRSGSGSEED
Structure (SMILES),DC50 [1] [µM],SMARCA2 % Degradation @ 1 μM [1],DC50 [2] [µM],inhibition at 1 µM ([2]; @ 1 μM) [%],SMARCA4 % Degradation @ 1 μM ([2]; @ 1 μM)
"C[C@@H]1CN(c2ccnc(C#CCNC(=O)c3cc4ncccn4n3)n2)CCN1c1cc(-c2ccccc2O)nnc1N [Compound P-49, (R)-N-(3-(4-(4-(3-amino-6-(2-hydroxyphenyl)pyridazin-4-yl)-3-methylpiperazin-1-yl)pyrimidin-2-yl)prop-2-yn-1-yl)pyrazolo[1,5-a]pyrimidine-2-carboxamide]",> 5,+ (+=<30%),0.5 to 5,< 30,–
"Nc1nnc(-c2ccccc2O)cc1N1CCCN(c2ccnc(C#CCN3C(=O)c4ccccc4C3=O)n2)CC1 [Compound P-375, 2-[3-(4-{4-[3-amino-6-(o-hydroxyphenyl)-4-pyridaziny1]-1,4-diazepan-1-yl}-2-pyrimidinyl)-2-propynyl]-1,3-isoindolinedione]",0.05 to 0.5,+++ (+++=>70%),0.05 to 0.5,–,++ (++=30-70%)
"Cc1nn2ccn(CC#Cc3nccc(N4C[C@H]5C[C@@H]4CN5c4cc(-c5ccccc5O)nnc4N)n3)c(=O)c2c1C [Compound P-286, 5-[3-(4-{(1R,4R)-5-[3-amino-6-(0-hydroxyphenyl)-4-pyridazinyl]-2,5-diazabicyclo[2.2.1]hept-2-y1}-2-pyrimidinyl)-2-propynyl]-2,3-dimethyl-1,5,7a-triaza-4(5H)-indenone]",0.05 to 0.5,++ (++=30-70%),0.05 to 0.5,30 to 70,–
"C[C@@H]1CCN(c2cnnc(-c3ccccc3O)c2)CCN1c1ccc(C#N)c(C#CCNC(=O)c2cc3ncccn3n2)n1 [Compound P-410, N-[3-(6-{(R)-4-[6-(0-hydroxyphenyl)-4-pyridazinyl]-7-methyl-1,4-diazepan-1-yl}-3-cyano-2-pyridyl)-2-propynyl]-1,4,7a-triaza-2-indenecarboxamide]",> 5,–,> 5,–,–
"Nc1nnc(-c2ccccc2O)cc1N1C[C@H]2C[C@@H]1CN2c1ccnc(C#CCN2CCCCC2)n1 [Compound P-285, 0-(5-{(1R,4R)-5-[2-(3-piperidino-1-propynyl)-4-pyrimidinyl]-2,5-diazabicyclo[2.2.1]hept-2-y1}-6-amino-3-pyridazinyl)phenol]",< 0.05,++ (++=30-70%),< 0.05,< 30,–
CCN(CC)CC#Cc1nccc(N2CCN(c3cc(-c4ccccc4O)nnc3N)CC[C@H]2C)n1 [Compound P-202],< 0.05,+++ (+++=>70%),< 0.05,30 to 70,–
"C[C@@H]1CCN(c2cc(-c3ccccc3O)nnc2N)CCN1c1ccnc(C#CCN2[C@H](C)C[C@@H]2C)n1 [Compound P-223, o-{5-[(R)-4-(2-{3-[(2R,4S)-2,4-dimethyl-1-azetidinyl]-1-propynyl}-4-pyrimidinyl)-5-methyl-1,4-diazepan-1-y1]-6-amino-3-pyridazinyl}phenol]",< 0.05,++ (++=30-70%),< 0.05,30 to 70,–
"Nc1nnc(-c2ccccc2O)cc1N1CCN(c2ccnc(C#CCNC(=O)c3cnc4ccccc4n3)n2)CC1 [Compound P-72, N-(3-(4-(4-(3-amino-6-(2-hydroxyphenyl)pyridazin-4-yl)piperazin-1-yl)pyrimidin-2-yl)prop-2-yn-1-yl)quinoxaline-2-carboxamide]",< 0.05,++ (++=30-70%),< 0.05,30 to 70,–
"NCC#Cc1nccc(N2CCC3C2CCCN3c2cc(-c3ccccc3O)nnc2N)n1 (stereo not shown) [Compound P-88, 2-(6-amino-5-(1-(2-(3-aminoprop-1-yn-1-yl)pyrimidin-4-yl)octahydro-4H-pyrrolo[3,2-b]pyridin-4-yl)pyridazin-3-yl)phenol]",> 5,+ (+=<30%),–,–,–
"NCC#Cc1nccc(N2CCCC3(CCN(c4cc(-c5ccccc5O)nnc4N)CC3)C2)n1 [Compound P-87, 2-(6-amino-5-(2-(2-(3-aminoprop-1-yn-1-yl)pyrimidin-4-yl)-2,9-diazaspiro[5.5]undecan-9-yl)pyridazin-3-yl)phenol]",0.5 to 5,+ (+=<30%),–,–,–
